“Also recorded” adds a separate entry of the source.
Assays:
[1] = Critical micelle concentration (CMC) using diphenylhexatriene (DPH) fluorescent stain; format: physicochemical; conditions: aqueous solution
Protocol: A method of measuring the CMC is not particularly limited, but the CMC may be measured using methods well known in the related art. For example, the CMC may be measured by a fluorescence staining method using diphenylhexatriene (DPH).
(§1) Specifically, the critical micelle concentration (CMC) was measured using diphenylhexatriene (DPH) as a fluorescent stain, and the hydrodynamic radii (Rh) of the micelles formed by each preparation (1.0% by weight) were measured through a dynamic light scattering (DLS) experiment.

[2] = Hydrodynamic radius and size distribution of micelles by dynamic light scattering (DLS); format: physicochemical; conditions: detergent 1.0% by weight
Protocol: A method of measuring the radius of the micelles is not particularly limited, but the radius of the micelles may be measured using methods well known in the related art. For example, the radius of the micelles may be measured through a dynamic light scattering (DLS) experiment.
as §1

[3] = target: T1, human β2 adrenergic receptor (β2AR) (Homo sapiens, UniProt P07550); assay: Structural stability of β2AR, [3H]-dihydroalprenolol ([3H]-DHA) binding; format: biochemical; conditions: BTMs without CHS, DDM with CHS; for initial ligand-binding characteristics of β2AR ([3H]-DHA): CMC+0.2% by weight
T1 construct: made in house
T1 sequence (P07550 whole entry): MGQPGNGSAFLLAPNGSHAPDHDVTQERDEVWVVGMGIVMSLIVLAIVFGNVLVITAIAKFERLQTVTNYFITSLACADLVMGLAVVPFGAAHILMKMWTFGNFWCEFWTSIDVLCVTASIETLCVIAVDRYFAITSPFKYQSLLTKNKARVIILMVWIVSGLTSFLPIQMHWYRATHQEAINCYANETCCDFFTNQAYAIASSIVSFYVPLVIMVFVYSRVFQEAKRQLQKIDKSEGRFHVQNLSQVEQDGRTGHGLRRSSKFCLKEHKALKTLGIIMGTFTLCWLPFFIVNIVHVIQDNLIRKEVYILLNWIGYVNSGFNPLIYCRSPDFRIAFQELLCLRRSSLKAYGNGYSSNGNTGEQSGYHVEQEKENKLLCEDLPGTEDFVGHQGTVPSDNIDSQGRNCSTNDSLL
Protocol: An experiment for determining the structural stability of a human β2 adrenergic receptor (β2AR) and a G-protein-coupled receptor (GPCR) by BTMs was performed. That is, a receptor purified with DDM was diluted with a buffer solution containing only each of the BTMs without cholesteryl hemisuccinate (CHS) or a buffer solution containing DDM with CHS. The final compound concentration was CMC+0.2% by weight, and the ligand-binding characteristics of the receptor were determined through [^3H]-dihydroalprenolol ([^3H]-DHA) binding.
Specifically, a radioactive ligand binding test was performed using the following method. β2AR was purified with 0.1% DDM (D. M. Rosenbaum et al., Science, 2007, 318, 1266-1273.), and finally concentrated to approximately 10 mg/mL (approximately 200 μM). A master binding mixture containing 10 nM [^3H]-dihydroalprenolol (DHA) supplemented with 0.5 mg/mL BSA in each 0.2% amphiphilic compound (DDM or BTMs) was prepared using the β2AR purified with DDM. The ligand-binding characteristics of the receptor purified with the amphiphilic compound at 0.2 pmol was monitored at regular intervals while the receptor was incubated at room temperature for 3 days. The ligand-binding characteristics of the receptor were determined using a water-soluble radioactive ligand binding assay as will be described below. The receptor purified with DDM or each of the BTMs was incubated with 10 nM [^3H]-DHA at room temperature for 30 minutes. The mixture was loaded on a G-50 column, and flow-through fractions were collected using 1 mL of a binding buffer (20 mM HEPES (pH 7.5) supplemented with 0.5 mg/mL BSA and 20×CMC of each amphiphilic compound, 100 mM NaCl). Then, the G-50 column was filled with 15 mL of a scintillation fluid. Receptor-bound [^3H]-DHA was counted using a scintillation counter (Beckman). Non-specific binding of [^3H]-DHA was determined by adding 2 μM of alprenolol (Sigma) in the same binding reaction. The binding affinity of [^3H]-DHA was plotted on a column graph, and each experiment was performed in triplicate.

[4] = target: T2, melibiose permease (MelB) (Salmonella typhimurium, UniProt P30878); assay: MelB extraction and thermostability, SDS-PAGE and Western Blotting of the dissolved protein; conditions: 55° C., 90 minutes; detergent 1.5% by weight
T2 construct: made in house; host or cells: E. coli DW2
T2 sequence (P30878 whole entry): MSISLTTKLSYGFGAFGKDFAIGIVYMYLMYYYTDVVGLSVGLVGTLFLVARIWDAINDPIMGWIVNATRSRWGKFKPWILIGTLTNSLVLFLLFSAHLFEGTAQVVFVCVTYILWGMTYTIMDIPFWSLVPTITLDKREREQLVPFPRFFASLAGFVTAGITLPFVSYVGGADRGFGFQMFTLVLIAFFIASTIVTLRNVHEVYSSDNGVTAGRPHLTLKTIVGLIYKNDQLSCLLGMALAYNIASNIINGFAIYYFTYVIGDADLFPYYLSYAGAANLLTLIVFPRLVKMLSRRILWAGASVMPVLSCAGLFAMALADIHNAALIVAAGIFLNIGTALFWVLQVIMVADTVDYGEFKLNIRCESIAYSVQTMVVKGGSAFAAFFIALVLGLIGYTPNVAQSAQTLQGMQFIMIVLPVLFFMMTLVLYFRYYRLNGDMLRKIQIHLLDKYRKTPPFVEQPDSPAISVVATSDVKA
Protocol: The MelB protein was extracted from a membrane using BTM-C11s or DDM, and the amount and structure of the extracted protein were analyzed through SDS-PAGE and Western Blotting. A concentration of the amphiphilic compound used was 1.5% by weight, and the protein was extracted at four temperatures (0, 45, 55, and 65° C.), and incubated at the same temperature for 90 minutes. Thereafter, an amount of the protein remaining dissolved in an aqueous solution was measured to evaluate two types of performance: protein extraction efficiency and stabilization ability of the compound. The amount of the protein extracted and stabilized with each of the amphiphilic molecules is expressed as a relative value (%) of the entire amount of proteins contained in a membrane sample which is not treated with the amphiphilic molecules.
Specifically, Salmonella typhimurium melibiose permease (MelBSt) having a 10-His tag at the C-terminus thereof was expressed in E. coli DW2 cells (AmelB and AlacZY) using a plasmid pK95ΔAHB/WT MelBSt/CH10. Cell growth and membrane preparation were performed according to the method disclosed in the article by A. S. Ethayathulla et al. (Nat. Commun. 2014, 5, 3009). A protein assay was performed using a Micro BCA kit (Thermo Scientific, Rockford, Ill.). An effect of the isomers (A-BTM-C11, B-BTM-C11, and M-BTM-C11) of the BTM-C11s or DDM on the MelBSt stability was evaluated using the protocol disclosed in P. S. Chae et al. (Nat. Methods 2010, 7, 1003-1008). A membrane sample (having a final protein concentration of 10 mg/mL) containing MelBSt was incubated at four temperatures (0, 45, 55, and 65° C.) for 90 minutes in a solubilizing buffer (20 mM sodium phosphate, pH 7.5, 200 mM NaCl, 10% glycerol, and 20 mM melibiose) containing 1.5% (w/v) DDM or the BTM-C11 isomers. To remove insoluble matter, the sample was ultracentrifuged at 355,590 g at 4° C. for 45 minutes using a Beckman Optima™ MAX ultracentrifuge equipped with a TLA-100 rotor. The dissolved fraction was separated by 16% SDS-PAGE, and then immunoblotted with a Penta-His-HRP antibody (Qiagen, Germantown, Md.). The membrane fraction containing 20 μg of untreated proteins was used to represent the entire MelB, and the treated samples were loaded in each well at the same volume. MelBSt was measured by an ImageQuant LAS 4000 Biomolecular imager (GE Health Care Life Sciences) using a SuperSignal West Pico chemiluminescent substrate.

[5] = test system: uric acid-xanthine/H+ symporter (UapA), UapAG411VΔ1-11 GFP fusion; assay: Thermal stability of UapA solubilized by detergent, fluorescence size exclusion chromatography (FSEC); design: species or system Aspergillus nidulans; conditions: detergent 1.0% by weight; 40° C. for 10 minutes
Protocol: A UapA protein is a uric acid-xanthine/H^+ symporter in Aspergillus nidulans. An experiment for measuring structural stability of a uric acid-xanthine/H^+ symporter (UapA) by BTMs in an aqueous solution was performed. The structural stability of UapA was measured using fluorescence size exclusion chromatography (FSEC).
Specifically, UapAG411VΔ1-11 (hereinafter referred to as ‘UapA’) was expressed as a GFP fusion protein in a Saccharomyces cerevisiae FGY217 strain, and divided into a sample buffer (20 mM Tris (pH 7.5), 150 mM NaCl, 0.03% DDM, and 0.6 mM xanthine). This procedure was performed according to the method disclosed in the article by J. Leung et al. (Mol. Membr. Biol. 2013, 30, 32-42). Membranes containing UapA were re-suspended in PBS (10 mM imidazole pH 8.0, 150 mM NaCl, and 10% glycerol), and a concentration of proteins was measured. […] 100 μL aliquots were removed from the respective tubes, and fluorescence reading on each sample was performed before and after the aliquots were ultracentrifuged at 150,000 g for 10 minutes to remove insoluble matter. Water-soluble fractions remaining under each condition were subjected to fluorescence SEC (FSEC) using a Superose 6 column (GE Healthcare) equilibrated with a buffer containing a proper preparation (DDM or BTM).

Compound | CMC [1] [mM] | CMC (% by weight) [1] [% by weight] | Rh (nm), hydrodynamic radius of micelles [2] [nm] | initial ligand-binding characteristics of β2AR ([3H]-DHA) [3] | amount of MelB protein remaining dissolved in aqueous solution [4] | UapA monodisperse peak in FSEC (extraction and structural stability) [5] | remaining ligand-binding ability of β2AR, % of initial ([3]; after 3 days of incubation at room temperature) | effect on the long-term stability of the receptor (β2AR) ([3]; room temperature, 3 days)
CCCCCCCCCOC[C@H](O[C@@H]1OC(CO)[C@@H](O[C@H]2OC(CO)[C@@H](O)C(O)C2O)C(O)C1O)[C@H](COCCCCCCCCC)O[C@@H]1OC(CO)[C@@H](O[C@H]2OC(CO)[C@@H](O)C(O)C2O)C(O)C1O (stereo partly drawn) [A-BTM-C9] | ~0.021 | ~0.0022 | 2.9 ± 0.04 | – | – | – | – | –
CCCCCCCCCCOC[C@H](O[C@@H]1OC(CO)[C@@H](O[C@H]2OC(CO)[C@@H](O)C(O)C2O)C(O)C1O)[C@H](COCCCCCCCCCC)O[C@@H]1OC(CO)[C@@H](O[C@H]2OC(CO)[C@@H](O)C(O)C2O)C(O)C1O (stereo partly drawn) [A-BTM-C10] | ~0.011 | ~0.0012 | 3.2 ± 0.07 | – | – | – | – | –
CCCCCCCCCCCOC[C@H](O[C@@H]1OC(CO)[C@@H](O[C@H]2OC(CO)[C@@H](O)C(O)C2O)C(O)C1O)[C@H](COCCCCCCCCCCC)O[C@@H]1OC(CO)[C@@H](O[C@H]2OC(CO)[C@@H](O)C(O)C2O)C(O)C1O (stereo partly drawn) [A-BTM-C11] | ~0.007 | ~0.0008 | 3.5 ± 0.03 | slight decrease in the ligand-binding characteristics | – | – | – | –
CCCCCCCCCCOC[C@@H](O[C@@H]1OC(CO)[C@@H](O[C@H]2OC(CO)[C@@H](O)C(O)C2O)C(O)C1O)[C@@H](COCCCCCCCCCC)O[C@@H]1OC(CO)[C@@H](O[C@H]2OC(CO)[C@@H](O)C(O)C2O)C(O)C1O (stereo partly drawn) [B-BTM-C10] | ~0.013 | ~0.0014 | 3.1 ± 0.07 | – | – | – | – | –
CCCCCCCCCCCOC[C@@H](O[C@@H]1OC(CO)[C@@H](O[C@H]2OC(CO)[C@@H](O)C(O)C2O)C(O)C1O)[C@@H](COCCCCCCCCCCC)O[C@@H]1OC(CO)[C@@H](O[C@H]2OC(CO)[C@@H](O)C(O)C2O)C(O)C1O (stereo partly drawn) [B-BTM-C11] | ~0.008 | ~0.0009 | 3.5 ± 0.08 | – | – | – | – | –
CCCCCCCCCOC[C@H](O[C@@H]1OC(CO)[C@@H](O[C@H]2OC(CO)[C@@H](O)C(O)C2O)C(O)C1O)[C@@H](COCCCCCCCCC)O[C@@H]1OC(CO)[C@@H](O[C@H]2OC(CO)[C@@H](O)C(O)C2O)C(O)C1O (stereo partly drawn) [M-BTM-C9] | ~0.017 | ~0.0017 | 3.2 ± 0.05 | – | – | – | – | –
CCCCCCCCCCOC[C@H](O[C@@H]1OC(CO)[C@@H](O[C@H]2OC(CO)[C@@H](O)C(O)C2O)C(O)C1O)[C@@H](COCCCCCCCCCC)O[C@@H]1OC(CO)[C@@H](O[C@H]2OC(CO)[C@@H](O)C(O)C2O)C(O)C1O (stereo partly drawn) [M-BTM-C10] | ~0.008 | ~0.0009 | 3.5 ± 0.07 | – | – | – | – | –
CCCCCCCCCCCOC[C@H](O[C@@H]1OC(CO)[C@@H](O[C@H]2OC(CO)[C@@H](O)C(O)C2O)C(O)C1O)[C@@H](COCCCCCCCCCCC)O[C@@H]1OC(CO)[C@@H](O[C@H]2OC(CO)[C@@H](O)C(O)C2O)C(O)C1O (stereo partly drawn) [M-BTM-C11] | ~0.006 | ~0.0006 | 4.7 ± 0.27 | slight decrease in the ligand-binding characteristics | complete solubility | significant increase in the recovery of monodisperse peaks; also recorded: most excellent effect | approximately 70% | much more superior effect in maintaining the long-term stability of β2AR, compared to DDM

— patent US11198704B2, “Butane-tetraol-based amphiphiles and uses thereof” (Industry-University Cooperation Foundation Hanyang …, priority 2016, dated 2021)
